# Test results: patent US11767310B2, “Nicotinamide RIPK1 inhibitors” (AbbVie Inc., priority 2021, dated 2023)
# Like-named read-outs stand apart in the source and are kept apart here.
# Assays:
# Test in all cases: Kinase binding screen
# MST2 = MST2 (Homo sapiens (Human), UniProt Q13188); conditions: read-out: Percent Control at 100 nM Compound Concentration
# [1] = target: JAK3(JH1domain-catalytic) (Homo sapiens (Human), UniProt P52333); conditions: read-out: Percent Control at 100 nM Compound Concentration
# BMPR2 = BMPR2 (Homo sapiens (Human), UniProt Q13873); conditions: read-out: Percent Control at 100 nM Compound Concentration
# PIKFYVE = PIKFYVE (Homo sapiens (Human), UniProt Q9Y2I7); conditions: read-out: Percent Control at 100 nM Compound Concentration
# MAST1 = MAST1 (Homo sapiens (Human), UniProt Q9Y2H9); conditions: read-out: Percent Control at 100 nM Compound Concentration
# TXK = TXK (Homo sapiens (Human), UniProt P42681); conditions: read-out: Percent Control at 100 nM Compound Concentration
# EGFR(G719S) = EGFR(G719S) (Homo sapiens (Human), UniProt P00533, G719S); conditions: read-out: Percent Control at 100 nM Compound Concentration
# ROCK2 = ROCK2 (Homo sapiens (Human), UniProt O75116); conditions: read-out: Percent Control at 100 nM Compound Concentration
# ABL2 = ABL2 (Homo sapiens (Human), UniProt P42684); conditions: read-out: Percent Control at 100 nM Compound Concentration
# FLT3(ITD) = test system: FLT3(ITD); parameters: species or system human
# FLT3(D835V) = FLT3(D835V) (Homo sapiens (Human), UniProt P36888, D835V); conditions: read-out: Percent Control at 100 nM Compound Concentration
# WNK1 = WNK1 (Homo sapiens (Human), UniProt Q9H4A3); conditions: read-out: Percent Control at 100 nM Compound Concentration
# PIM1 = PIM1 (Homo sapiens (Human), UniProt P11309); conditions: read-out: Percent Control at 100 nM Compound Concentration
# MET(Y1235D) = MET(Y1235D) (Homo sapiens (Human), UniProt P08581, Y1235D); conditions: read-out: Percent Control at 100 nM Compound Concentration
# MAP3K4 = MAP3K4 (Homo sapiens (Human), UniProt Q9Y6R4); conditions: read-out: Percent Control at 100 nM Compound Concentration
# HASPIN = HASPIN (Homo sapiens (Human), UniProt Q8TF76); conditions: read-out: Percent Control at 100 nM Compound Concentration
# LATS1 = LATS1 (Homo sapiens (Human), UniProt O95835); conditions: read-out: Percent Control at 100 nM Compound Concentration
# CDKL2 = CDKL2 (Homo sapiens (Human), UniProt Q92772); conditions: read-out: Percent Control at 100 nM Compound Concentration
# SGK2 = SGK2 (Homo sapiens (Human), UniProt Q9HBY8); conditions: read-out: Percent Control at 100 nM Compound Concentration
# WEE1 = WEE1 (Homo sapiens (Human), UniProt P30291); conditions: read-out: Percent Control at 100 nM Compound Concentration
# WEE2 = WEE2 (Homo sapiens (Human), UniProt P0C1S8); conditions: read-out: Percent Control at 100 nM Compound Concentration
# EPHB3 = EPHB3 (Homo sapiens (Human), UniProt P54753); conditions: read-out: Percent Control at 100 nM Compound Concentration
# NIK = NIK (Homo sapiens (Human), UniProt Q99558); conditions: read-out: Percent Control at 100 nM Compound Concentration
# PIK3CA(C420R) = PIK3CA(C420R) (Homo sapiens (Human), UniProt P42336, C420R); conditions: read-out: Percent Control at 100 nM Compound Concentration
# HIPK2 = HIPK2 (Homo sapiens (Human), UniProt Q9H2X6); conditions: read-out: Percent Control at 100 nM Compound Concentration
# GRK2 = GRK2 (Homo sapiens (Human), UniProt P25098); conditions: read-out: Percent Control at 100 nM Compound Concentration
# PIK3CD = PIK3CD (Homo sapiens (Human), UniProt O00329); conditions: read-out: Percent Control at 100 nM Compound Concentration
# [2] = target: ABL1(H396P)-phosphorylated (Homo sapiens (Human), UniProt P00519, H396P); conditions: read-out: Percent Control at 100 nM Compound Concentration
# SgK110 = SgK110 (Homo sapiens (Human), UniProt P0C264); conditions: read-out: Percent Control at 100 nM Compound Concentration
# MAP3K4, sequence (Q9Y6R4 whole entry): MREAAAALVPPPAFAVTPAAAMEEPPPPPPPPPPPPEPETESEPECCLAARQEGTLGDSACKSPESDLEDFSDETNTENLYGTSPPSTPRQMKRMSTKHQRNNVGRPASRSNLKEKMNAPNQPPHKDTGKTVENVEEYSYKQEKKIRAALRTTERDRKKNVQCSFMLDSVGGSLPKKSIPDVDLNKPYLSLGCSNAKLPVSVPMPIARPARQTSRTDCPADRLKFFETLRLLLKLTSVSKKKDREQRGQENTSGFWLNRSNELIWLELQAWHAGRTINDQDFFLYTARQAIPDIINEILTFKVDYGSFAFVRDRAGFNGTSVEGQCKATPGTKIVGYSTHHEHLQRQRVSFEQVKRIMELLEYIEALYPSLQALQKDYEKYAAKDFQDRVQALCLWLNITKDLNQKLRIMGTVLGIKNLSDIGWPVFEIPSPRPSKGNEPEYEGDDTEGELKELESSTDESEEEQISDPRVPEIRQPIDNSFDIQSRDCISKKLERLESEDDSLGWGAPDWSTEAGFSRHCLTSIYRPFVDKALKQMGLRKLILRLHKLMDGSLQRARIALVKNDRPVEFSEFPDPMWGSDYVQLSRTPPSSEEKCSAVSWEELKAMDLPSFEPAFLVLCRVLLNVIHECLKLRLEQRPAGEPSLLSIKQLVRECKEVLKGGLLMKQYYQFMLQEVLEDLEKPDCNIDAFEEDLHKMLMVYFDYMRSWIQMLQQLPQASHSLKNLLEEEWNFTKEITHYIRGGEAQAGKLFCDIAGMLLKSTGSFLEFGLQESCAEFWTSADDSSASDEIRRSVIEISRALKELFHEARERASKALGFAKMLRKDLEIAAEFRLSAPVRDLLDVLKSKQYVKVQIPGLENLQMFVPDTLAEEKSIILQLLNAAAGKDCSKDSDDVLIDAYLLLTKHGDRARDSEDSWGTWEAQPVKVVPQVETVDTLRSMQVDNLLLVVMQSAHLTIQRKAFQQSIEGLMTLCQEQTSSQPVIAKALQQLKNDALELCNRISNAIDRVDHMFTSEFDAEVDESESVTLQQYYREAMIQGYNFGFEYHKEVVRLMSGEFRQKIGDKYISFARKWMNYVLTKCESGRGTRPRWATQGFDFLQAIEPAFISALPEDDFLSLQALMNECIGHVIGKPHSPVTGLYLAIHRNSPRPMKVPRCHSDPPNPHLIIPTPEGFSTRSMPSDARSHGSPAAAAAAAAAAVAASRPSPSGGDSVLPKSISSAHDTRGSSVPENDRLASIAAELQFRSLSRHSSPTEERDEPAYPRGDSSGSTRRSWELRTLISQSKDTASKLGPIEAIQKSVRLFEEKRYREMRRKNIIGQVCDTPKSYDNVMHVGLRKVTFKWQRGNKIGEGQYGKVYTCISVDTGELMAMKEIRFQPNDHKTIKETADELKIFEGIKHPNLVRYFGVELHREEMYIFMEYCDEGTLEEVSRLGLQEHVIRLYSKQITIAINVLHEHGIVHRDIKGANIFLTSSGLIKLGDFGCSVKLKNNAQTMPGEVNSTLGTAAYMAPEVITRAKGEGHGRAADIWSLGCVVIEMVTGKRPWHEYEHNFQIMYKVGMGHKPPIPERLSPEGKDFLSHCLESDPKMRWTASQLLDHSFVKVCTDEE
# EPHB3, sequence (P54753 34-998): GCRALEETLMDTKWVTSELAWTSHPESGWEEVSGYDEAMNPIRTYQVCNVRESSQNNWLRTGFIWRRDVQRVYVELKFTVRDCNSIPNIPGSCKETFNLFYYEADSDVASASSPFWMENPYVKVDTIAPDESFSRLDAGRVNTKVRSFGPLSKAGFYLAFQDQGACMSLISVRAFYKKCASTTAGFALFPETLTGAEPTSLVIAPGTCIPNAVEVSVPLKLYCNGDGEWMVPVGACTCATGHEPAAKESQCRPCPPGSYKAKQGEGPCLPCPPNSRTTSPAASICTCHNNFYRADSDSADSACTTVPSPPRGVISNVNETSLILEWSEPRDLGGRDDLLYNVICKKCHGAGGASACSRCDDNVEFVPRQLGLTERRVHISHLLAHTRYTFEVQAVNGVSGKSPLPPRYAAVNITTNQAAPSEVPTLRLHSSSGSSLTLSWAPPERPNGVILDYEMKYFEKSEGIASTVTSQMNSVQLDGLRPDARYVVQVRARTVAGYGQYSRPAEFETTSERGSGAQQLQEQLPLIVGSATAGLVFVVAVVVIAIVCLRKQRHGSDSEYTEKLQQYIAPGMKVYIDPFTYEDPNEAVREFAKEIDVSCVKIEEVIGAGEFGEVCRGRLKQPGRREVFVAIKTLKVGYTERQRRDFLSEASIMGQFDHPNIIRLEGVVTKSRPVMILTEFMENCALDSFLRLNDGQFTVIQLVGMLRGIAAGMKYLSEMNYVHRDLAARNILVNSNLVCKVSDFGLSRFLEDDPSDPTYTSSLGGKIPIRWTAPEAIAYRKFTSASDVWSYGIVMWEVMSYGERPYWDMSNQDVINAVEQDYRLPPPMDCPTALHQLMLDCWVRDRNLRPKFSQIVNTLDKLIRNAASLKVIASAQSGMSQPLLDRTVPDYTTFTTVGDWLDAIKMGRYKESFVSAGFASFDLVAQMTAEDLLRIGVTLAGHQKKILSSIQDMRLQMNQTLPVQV
# WNK1, sequence (Q9H4A3 whole entry): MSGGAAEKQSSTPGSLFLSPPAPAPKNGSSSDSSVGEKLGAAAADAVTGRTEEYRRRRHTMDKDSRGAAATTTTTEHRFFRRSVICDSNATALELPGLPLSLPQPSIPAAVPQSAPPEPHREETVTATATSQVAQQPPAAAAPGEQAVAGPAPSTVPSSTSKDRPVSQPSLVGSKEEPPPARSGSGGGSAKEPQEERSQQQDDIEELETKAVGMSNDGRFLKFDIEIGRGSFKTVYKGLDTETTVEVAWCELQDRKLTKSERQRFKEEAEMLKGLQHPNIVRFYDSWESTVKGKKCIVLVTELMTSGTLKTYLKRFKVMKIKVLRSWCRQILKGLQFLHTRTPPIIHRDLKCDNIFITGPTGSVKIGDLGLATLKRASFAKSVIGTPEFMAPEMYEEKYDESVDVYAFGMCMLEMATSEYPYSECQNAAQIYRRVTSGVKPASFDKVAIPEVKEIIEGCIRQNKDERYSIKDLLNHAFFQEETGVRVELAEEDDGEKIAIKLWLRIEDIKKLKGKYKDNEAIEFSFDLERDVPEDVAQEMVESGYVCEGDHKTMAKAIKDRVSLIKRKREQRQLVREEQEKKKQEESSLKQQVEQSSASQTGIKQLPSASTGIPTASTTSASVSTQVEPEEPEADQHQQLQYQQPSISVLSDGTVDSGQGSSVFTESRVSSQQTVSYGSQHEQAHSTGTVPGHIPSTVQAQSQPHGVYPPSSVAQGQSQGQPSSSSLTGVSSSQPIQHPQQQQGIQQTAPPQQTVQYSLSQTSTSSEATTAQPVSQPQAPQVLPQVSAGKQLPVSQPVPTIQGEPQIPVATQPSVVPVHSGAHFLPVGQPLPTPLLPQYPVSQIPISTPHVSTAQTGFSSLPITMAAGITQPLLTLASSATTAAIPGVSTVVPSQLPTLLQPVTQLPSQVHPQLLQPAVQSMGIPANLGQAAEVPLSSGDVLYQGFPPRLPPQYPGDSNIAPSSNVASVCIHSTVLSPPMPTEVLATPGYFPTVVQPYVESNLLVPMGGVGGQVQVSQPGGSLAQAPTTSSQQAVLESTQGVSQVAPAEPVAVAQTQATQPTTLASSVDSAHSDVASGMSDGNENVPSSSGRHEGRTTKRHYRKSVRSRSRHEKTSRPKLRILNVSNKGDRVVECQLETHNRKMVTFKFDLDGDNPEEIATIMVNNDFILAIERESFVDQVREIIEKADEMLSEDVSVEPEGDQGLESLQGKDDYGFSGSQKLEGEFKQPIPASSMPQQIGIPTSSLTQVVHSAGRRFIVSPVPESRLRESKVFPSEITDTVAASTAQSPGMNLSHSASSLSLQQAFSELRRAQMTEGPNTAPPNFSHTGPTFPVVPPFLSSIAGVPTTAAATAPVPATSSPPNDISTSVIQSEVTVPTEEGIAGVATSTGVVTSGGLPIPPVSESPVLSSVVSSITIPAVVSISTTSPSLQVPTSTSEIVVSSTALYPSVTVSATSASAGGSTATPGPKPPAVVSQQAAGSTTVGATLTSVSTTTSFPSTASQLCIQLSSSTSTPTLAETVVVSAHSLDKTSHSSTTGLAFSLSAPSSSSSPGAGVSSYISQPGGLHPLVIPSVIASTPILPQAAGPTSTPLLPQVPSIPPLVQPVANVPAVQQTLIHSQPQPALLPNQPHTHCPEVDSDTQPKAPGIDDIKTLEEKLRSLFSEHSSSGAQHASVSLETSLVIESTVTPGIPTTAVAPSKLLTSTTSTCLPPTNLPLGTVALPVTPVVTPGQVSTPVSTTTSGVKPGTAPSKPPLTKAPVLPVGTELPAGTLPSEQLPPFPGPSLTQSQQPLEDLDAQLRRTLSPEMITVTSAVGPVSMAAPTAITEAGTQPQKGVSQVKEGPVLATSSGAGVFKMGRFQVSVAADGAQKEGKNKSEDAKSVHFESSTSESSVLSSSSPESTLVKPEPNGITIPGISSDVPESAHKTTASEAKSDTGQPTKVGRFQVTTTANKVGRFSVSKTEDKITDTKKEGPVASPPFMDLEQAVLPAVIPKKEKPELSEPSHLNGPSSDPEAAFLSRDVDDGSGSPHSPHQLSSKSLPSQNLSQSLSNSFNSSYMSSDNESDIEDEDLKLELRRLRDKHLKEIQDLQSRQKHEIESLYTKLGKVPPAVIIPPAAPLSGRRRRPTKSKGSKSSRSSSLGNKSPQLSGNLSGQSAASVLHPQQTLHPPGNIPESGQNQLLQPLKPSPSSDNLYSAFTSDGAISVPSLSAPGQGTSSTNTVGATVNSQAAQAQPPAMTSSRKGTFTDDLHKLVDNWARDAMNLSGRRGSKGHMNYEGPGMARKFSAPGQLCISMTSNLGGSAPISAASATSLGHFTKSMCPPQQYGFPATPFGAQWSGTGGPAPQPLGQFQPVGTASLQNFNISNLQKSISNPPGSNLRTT
structure (smiles),measurement,setting,value
"CN(C[C@@H](O)Cc1ccccc1)C(=O)c1cncc(C#Cc2cnn(C(F)F)c2)c1 [Example 2, (S)-5-((1-(difluoromethyl)-1H-pyrazol-4-yl)ethynyl)-N-(2-hydroxy-3-phenylpropyl)-N-methylnicotinamide]",remaining activity at 0.1 µM,MST2; MST2,100%
same,remaining activity at 0.1 µM,[1]; JAK3(JH1domain-catalytic),100%
same,remaining activity at 0.1 µM,BMPR2; BMPR2,100%
same,remaining activity at 0.1 µM,PIKFYVE; PIKFYVE,57%
same,remaining activity at 0.1 µM,MAST1; MAST1,100%
same,remaining activity at 0.1 µM,TXK; TXK,100%
same,remaining activity at 0.1 µM,EGFR(G719S); EGFR(G719S),100%
same,remaining activity at 0.1 µM,ROCK2; ROCK2,100%
same,remaining activity at 0.1 µM,ABL2; ABL2,100%
same,Percent Control at 100 nM Compound Concentration,FLT3(ITD),100%
same,remaining activity at 0.1 µM,FLT3(D835V); FLT3(D835V),100%
same,remaining activity at 0.1 µM,WNK1; WNK1,93%
same,remaining activity at 0.1 µM,PIM1; PIM1,98%
same,remaining activity at 0.1 µM,MET(Y1235D); MET(Y1235D),98%
same,remaining activity at 0.1 µM,MAP3K4; MAP3K4,100%
same,remaining activity at 0.1 µM,HASPIN; HASPIN,86%
same,remaining activity at 0.1 µM,LATS1; LATS1,100%
same,remaining activity at 0.1 µM,CDKL2; CDKL2,100%
same,remaining activity at 0.1 µM,SGK2; SGK2,100%
same,remaining activity at 0.1 µM,WEE1; WEE1,92%
same,remaining activity at 0.1 µM,WEE2; WEE2,100%
same,remaining activity at 0.1 µM,EPHB3; EPHB3,100%
same,remaining activity at 0.1 µM,NIK; NIK,84%
same,remaining activity at 0.1 µM,PIK3CA(C420R); PIK3CA(C420R),83%
same,remaining activity at 0.1 µM,HIPK2; HIPK2,99%
same,remaining activity at 0.1 µM,GRK2; GRK2,96%
same,remaining activity at 0.1 µM,PIK3CD; PIK3CD,99%
same,remaining activity at 0.1 µM,[2]; ABL1(H396P)-phosphorylated,94%
same,remaining activity at 0.1 µM,SgK110; SgK110,81%
"CN(C[C@H](Cc1ccccc1)OP(=O)(O)O)C(=O)c1cncc(C#Cc2cnn(C(F)F)c2)c1 [Example 19, (S)-1-(5-((1-(difluoromethyl)-1H-pyrazol-4-yl)ethynyl)-N-methylnicotinamido)-3-phenylpropan-2-yl dihydrogen phosphate]",remaining activity at 0.1 µM,MST2,99%
same,remaining activity at 0.1 µM,[1],100%
same,remaining activity at 0.1 µM,BMPR2,89%
same,remaining activity at 0.1 µM,PIKFYVE,57%
same,remaining activity at 0.1 µM,MAST1,97%
same,remaining activity at 0.1 µM,TXK,100%
same,remaining activity at 0.1 µM,EGFR(G719S),72%
same,remaining activity at 0.1 µM,ROCK2,100%
same,remaining activity at 0.1 µM,ABL2,98%
same,Percent Control at 100 nM Compound Concentration,FLT3(ITD),100%
same,remaining activity at 0.1 µM,FLT3(D835V),100%
same,remaining activity at 0.1 µM,WNK1,94%
same,remaining activity at 0.1 µM,PIM1,100%
same,remaining activity at 0.1 µM,MET(Y1235D),99%
same,remaining activity at 0.1 µM,MAP3K4,100%
same,remaining activity at 0.1 µM,HASPIN,83%
same,remaining activity at 0.1 µM,LATS1,88%
same,remaining activity at 0.1 µM,CDKL2,95%
same,remaining activity at 0.1 µM,SGK2,93%
same,remaining activity at 0.1 µM,WEE1,100%
same,remaining activity at 0.1 µM,WEE2,100%
same,remaining activity at 0.1 µM,EPHB3,100%
same,remaining activity at 0.1 µM,NIK,88%
same,remaining activity at 0.1 µM,PIK3CA(C420R),86%
same,remaining activity at 0.1 µM,HIPK2,79%
same,remaining activity at 0.1 µM,GRK2,79%
same,remaining activity at 0.1 µM,PIK3CD,85%
same,remaining activity at 0.1 µM,[2],93%
same,remaining activity at 0.1 µM,SgK110,77%
